Laboratory results reported in US9409943B2 (Bristol-Myers Squibb Company, priority 2012, dated 2016).
Like-named read-outs stand apart in the source and are kept apart here.

Columns and labels:
HCV GT1a(H77) replicon = test: HCV replicon luciferase reporter assay, genotype 1a; assay type: cell-based, HCV genotype 1a; conditions: Hepatitis C virus, 72 h, HUH-7 cells, 3 days incubation
From the text: A stable HCV GT1a(H77) replicon luciferase reporter cell line (Yanagi M, Purcell R H, Emerson S U, et al. Transcripts from a single full-length cDNA clone of hepatitis C virus are infectious when directly transfected into the liver of a chimpanzee. Proc Natl Acad Sci USA 1997; 94(16):8738-8743) was generated as described previously for the genotype 1b(Con1) replicon luciferase cell line. The replicon construct was modified by introducing mutations into the genes encoding the NS3 helicase domain (proline replaced by leucine at position 1496) and NS5A (serine to isoleucine at position 2204) to improve replication in cell culture.
(§1) HCV replicon luciferase assays were developed to monitor the inhibitory effects of compounds described in the disclosure on HCV genotypes 1a and 1b viral replication. HUH-7 cells, constitutively expressing the HCV replicon, were grown in Dulbecco's Modified Eagle Media (DMEM) (Gibco-BRL) containing 10% Fetal calf serum (FCS) (Sigma) and 1 mg/mL G418 (Gibco-BRL). Compounds were serially diluted 3 folds in DMSO for a twenty-point titration and subsequently transferred to sterile 384-well tissue-culture treated plates (Corning cat #3571). The plates were then seeded with 50 μL of cells at a density of 3.0×10^3 cells/well in DMEM containing 4% FCS (final DMSO concentration at 0.5%). After 3 days incubation at 37° C., cells were analyzed for Renilla Luciferase activity using the EnduRen as substrate (Promega cat #E6485). The EnduRen substrate was diluted in DMEM and then added to the plates to a final concentration of 7.5 μM. The plates were incubated for 2 hrs at 37° C. and then read immediately for 30 seconds with Viewlux Imager (PerkinElmer) using a luminescence program. To assess cytotoxicity of compounds, CC50 values were generated by multiplexing the EnduRen-containing plates with Cell Titer-Blue (Promega, cat # G8082). Cell-Titer Blue (3 μL) was added to each well and incubated for 8 hrs at 37° C. The fluorescence signal from each well was read, with an excitation wavelength at 525/10 nm and an emission wavelength of 598/10 nm, using the Viewlux Imager.
(§2) The EC50 values for compounds were calculated by using a four-parameter logistic equation: y=A+((B−A)/(1+((C/x)^D))), where A and B denotes minimal and maximal % inhibition, respectively, C is the EC50, D is the hill slope and x represents compound concentration.

HCV GT1b(Con1) replicon = test: HCV replicon luciferase reporter assay, genotype 1b; assay type: cell-based, HCV genotype 1b; conditions: Hepatitis C virus, 72 h, HUH-7 cells, 3 days incubation
From the text: An HCV GT1b(Con1) replicon cell system was established as described by Lohmann V, Korner F, Koch J, Herian U, Theilmann L, Bartenschlager R., Science 285(5424):110-3 (1999) and modified to introduce a luciferase reporter (Krieger N, Lohmann V, and Bartenschlager R, J. Virol. 75(10):4614-4624 (2001)). cDNA encoding a humanized form of the Renilla luciferase gene, and a linker sequence fused directly to the 3′-end of the luciferase gene were introduced into the replicon construct using an Asc1 restriction site located in core, directly upstream of the neomycin marker gene. The adaptive mutation at position 1179 (serine to isoleucine) was also introduced (Blight K J, Kolykhalov, A A, Rice, C M, Science 290(5498):1972-1974). A stable cell line constitutively expressing this HCV replicon construct was generated by first linearizing plasmid DNAs with ScaI. RNA transcripts were synthesized in vitro using the T7 MegaScript transcription kit (Ambion, Austin, Tex.) according to manufacturer's directions. In vitro transcripts of the cDNA were transfected into the human hepatoma cell line, HUH-7. […] Resulting cell lines were characterized for positive and negative strand RNA production and protein production over time.
as §1, §2

SMILES: C[C@@H]1CC/C=C\[C@@H]2C[C@@]2(C(=O)NS(=O)(=O)C2(CF)CC2)NC(=O)[C@@H]2C[C@@H](OC(=O)c3ccccc3C(F)(F)F)CN2C(=O)[C@@H](NC(=O)OC(C)(C)C(F)(F)F)[C@H](C)C1 [Compound 1002, (2R,6S,7R,9R,13aS,14aR,16aS,Z)-14a-(((1-(fluoromethyl)cyclopropyl)sulfonyl)carbamoyl)-7,9-dimethyl-5,16-dioxo-6-((((1,1,1-trifluoro-2-methylpropan-2-yl)oxy)carbonyl)amino)-1,2,3,5,6,7,8,9,10,11,13a,14,14a,15,16,16a-hexadecahydrocyclopropa[e]pyrrolo[1,2-a][1,4]diazacyclopentadecin-2-yl 2-(trifluoromethyl)benzoate]
- EC50 (HCV GT1a(H77) replicon; read-out: LE_1a (EC50, range)): 5.01 to 35 nM
- EC50 (HCV GT1b(Con1) replicon; read-out: LE_1b (EC50, range)): 1.01 to 5 nM

SMILES: COc1ccc(C(=O)O[C@@H]2C[C@H]3C(=O)N[C@]4(C(=O)NS(=O)(=O)C5(C)CC5)C[C@H]4/C=C\CC[C@@H](C)C[C@@H](C)[C@H](NC(=O)OC(C)(C)C)C(=O)N3C2)cc1 [Compound 1003, (2R,6S,7R,9R,13aS,14aR,16aS,Z)-6-((tert-butoxycarbonyl)amino)-7,9-dimethyl-14a-(((1-methylcyclopropyl)sulfonyl)carbamoyl)-5,16-dioxo-1,2,3,5,6,7,8,9,10,11,13a,14,14a,15,16,16a-hexadecahydrocyclopropa[e]pyrrolo[1,2-a][1,4]diazacyclopentadecin-2-yl 4-methoxybenzoate]
- EC50 (HCV GT1a(H77) replicon; read-out: LE_1a (EC50, range)): 5.01 to 35 nM
- EC50 (HCV GT1b(Con1) replicon; read-out: LE_1b (EC50, range)): 5.01 to 35 nM

SMILES: COc1ccc(C(=O)O[C@@H]2C[C@H]3C(=O)N[C@]4(C(=O)NS(=O)(=O)C5(C)CC5)C[C@H]4/C=C\CC[C@@H](C)C[C@@H](C)[C@H](NC(=O)OC(C)(C)C(F)(F)F)C(=O)N3C2)cc1 [Compound 1005, (2R,6S,7R,9R,13aS,14aR,16aS,Z)-7,9-dimethyl-14a-(((1-methylcyclopropyl)sulfonyl)carbamoyl)-5,16-dioxo-6-((((1,1,1-trifluoro-2-methylpropan-2-yl)oxy)carbonyl)amino)-1,2,3,5,6,7,8,9,10,11,13a,14,14a,15,16,16a-hexadecahydrocyclopropa[e]pyrrolo[1,2-a][1,4]diazacyclopentadecin-2-yl 4-methoxybenzoate]
- EC50 (HCV GT1a(H77) replicon; read-out: LE_1a (EC50)): 1.15 nM
- EC50 (HCV GT1a(H77) replicon; read-out: LE_1a (EC50, range)): 1.01 to 5 nM
- EC50 (HCV GT1b(Con1) replicon; read-out: LE_1b (EC50)): 0.75 nM
- EC50 (HCV GT1b(Con1) replicon; read-out: LE_1b (EC50, range)): 0.51 to 1 nM

SMILES: C[C@@H]1CC/C=C\[C@@H]2C[C@@]2(C(=O)NS(=O)(=O)C2(CF)CC2)NC(=O)[C@@H]2C[C@@H](OC(=O)c3ccc4ccccc4c3)CN2C(=O)[C@@H](NC(=O)OC(C)(C)C(F)(F)F)[C@H](C)C1 [Compound 1006]
- EC50 (HCV GT1a(H77) replicon; read-out: LE_1a (EC50, range)): 1.01 to 5 nM
- EC50 (HCV GT1b(Con1) replicon; read-out: LE_1b (EC50, range)): 1.01 to 5 nM

SMILES: COc1ccccc1C(=O)O[C@@H]1C[C@H]2C(=O)N[C@]3(C(=O)NS(=O)(=O)C4(CF)CC4)C[C@H]3/C=C\CC[C@@H](C)C[C@@H](C)[C@H](NC(=O)OC(C)(C)C(F)(F)F)C(=O)N2C1 [Compound 1008, (2R,6S,7R,9R,13aS,14aR,16aS,Z)-14a-(((1-(fluoromethyl)cyclopropyl)sulfonyl)carbamoyl)-7,9-dimethyl-5,16-dioxo-6-((((1,1,1-trifluoro-2-methylpropan-2-yl)oxy)carbonyl)amino)-1,2,3,5,6,7,8,9,10,11,13a,14,14a,15,16,16a-hexadecahydrocyclopropa[e]pyrrolo[1,2-a][1,4]diazacyclopentadecin-2-yl 2-methoxybenzoate]
- EC50 (HCV GT1a(H77) replicon; read-out: LE_1a (EC50, range)): 5.01 to 35 nM
- EC50 (HCV GT1b(Con1) replicon; read-out: LE_1b (EC50, range)): 1.01 to 5 nM

SMILES: C[C@@H]1CC/C=C\[C@@H]2C[C@@]2(C(=O)NS(=O)(=O)C2(CF)CC2)NC(=O)[C@@H]2C[C@@H](OC(=O)c3cccc(F)c3)CN2C(=O)[C@@H](NC(=O)OC(C)(C)C(F)(F)F)[C@H](C)C1 [Compound 1010, (2R,6S,7R,9R,13aS,14aR,16aS,Z)-14a-(((1-(fluoromethyl)cyclopropyl)sulfonyl)carbamoyl)-7,9-dimethyl-5,16-dioxo-6-((((1,1,1-trifluoro-2-methylpropan-2-yl)oxy)carbonyl)amino)-1,2,3,5,6,7,8,9,10,11,13a,14,14a,15,16,16a-hexadecahydrocyclopropa[e]pyrrolo[1,2-a][1,4]diazacyclopentadecin-2-yl 3-fluorobenzoate]
- EC50 (HCV GT1a(H77) replicon; read-out: LE_1a (EC50, range)): 5.01 to 35 nM
- EC50 (HCV GT1b(Con1) replicon; read-out: LE_1b (EC50, range)): 1.01 to 5 nM

SMILES: C[C@@H]1CC/C=C\[C@@H]2C[C@@]2(C(=O)NS(=O)(=O)C2(CF)CC2)NC(=O)[C@@H]2C[C@@H](OC(=O)c3ccc4c(c3)OCO4)CN2C(=O)[C@@H](NC(=O)OC(C)(C)C(F)(F)F)[C@H](C)C1 [Compound 1011, (2R,6S,7R,9R,13aS,14aR,16aS,Z)-14a-(((1-(fluoromethyl)cyclopropyl)sulfonyl)carbamoyl)-7,9-dimethyl-5,16-dioxo-6-((((1,1,1-trifluoro-2-methylpropan-2-yl)oxy)carbonyl)amino)-1,2,3,5,6,7,8,9,10,11,13a,14,14a,15,16,16a-hexadecahydrocyclopropa[e]pyrrolo[1,2-a][1,4]diazacyclopentadecin-2-yl benzo[d][1,3]dioxole-5-carboxylate]
- EC50 (HCV GT1a(H77) replicon; read-out: LE_1a (EC50)): 7.98 nM
- EC50 (HCV GT1a(H77) replicon; read-out: LE_1a (EC50, range)): 5.01 to 35 nM
- EC50 (HCV GT1b(Con1) replicon; read-out: LE_1b (EC50)): 1.68 nM
- EC50 (HCV GT1b(Con1) replicon; read-out: LE_1b (EC50, range)): 1.01 to 5 nM

SMILES: C[C@H]1CC/C=C\[C@@H]2C[C@@]2(C(=O)NS(=O)(=O)C2(C)CC2)NC(=O)[C@@H]2C[C@@H](OC(=O)c3ccc4c(c3)OCCO4)CN2C(=O)[C@@H](NC(=O)OC(C)(C)C)[C@H](C)C1 [Compound 1012, (2R,6S,7R,9S,13aS,14aR,16aS,Z)-6-((tert-butoxycarbonyl)amino)-7,9-dimethyl-14a-(((1-methylcyclopropyl)sulfonyl)carbamoyl)-5,16-dioxo-1,2,3,5,6,7,8,9,10,11,13a,14,14a,15,16,16a-hexadecahydrocyclopropa[e]pyrrolo[1,2-a][1,4]diazacyclopentadecin-2-yl 2,3-dihydrobenzo[b][1,4]dioxine-6-carboxylate]
- EC50 (HCV GT1a(H77) replicon; read-out: LE_1a (EC50, range)): 5.01 to 35 nM
- EC50 (HCV GT1b(Con1) replicon; read-out: LE_1b (EC50, range)): 1.01 to 5 nM

SMILES: C[C@@H]1CC/C=C\[C@@H]2C[C@@]2(C(=O)NS(=O)(=O)C2(C)CC2)NC(=O)[C@@H]2C[C@@H](OC(=O)c3ccc4c(c3)OCCO4)CN2C(=O)[C@@H](NC(=O)OC(C)(C)C)[C@H](C)C1 [Compound 1013, (2R,6S,7R,9R,13aS,14aR,16aS,Z)-6-((tert-butoxycarbonyl)amino)-7,9-dimethyl-14a-(((1-methylcyclopropyl)sulfonyl)carbamoyl)-5,16-dioxo-1,2,3,5,6,7,8,9,10,11,13a,14,14a,15,16,16a-hexadecahydrocyclopropa[e]pyrrolo[1,2-a][1,4]diazacyclopentadecin-2-yl 2,3-dihydrobenzo[b][1,4]dioxine-6-carboxylate]
- EC50 (HCV GT1a(H77) replicon; read-out: LE_1a (EC50, range)): 1.01 to 5 nM
- EC50 (HCV GT1b(Con1) replicon; read-out: LE_1b (EC50, range)): 1.01 to 5 nM

SMILES: C[C@@H]1CC/C=C\[C@@H]2C[C@@]2(C(=O)NS(=O)(=O)C2(C)CC2)NC(=O)[C@@H]2C[C@@H](OC(=O)c3ccc4c(c3)OCCO4)CN2C(=O)[C@@H](NC(=O)OC(C)(C)C(F)(F)F)[C@H](C)C1 [Compound 1015, (2R,6S,7R,9R,13aS,14aR,16aS,Z)-7,9-dimethyl-14a-(((1-methylcyclopropyl)sulfonyl)carbamoyl)-5,16-dioxo-6-((((1,1,1-trifluoro-2-methylpropan-2-yl)oxy)carbonyl)amino)-1,2,3,5,6,7,8,9,10,11,13a,14,14a,15,16,16a-hexadecahydrocyclopropa[e]pyrrolo[1,2-a][1,4]diazacyclopentadecin-2-yl 2,3-dihydrobenzo[b][1,4]dioxine-6-carboxylate]
- EC50 (HCV GT1a(H77) replicon; read-out: LE_1a (EC50, range)): 5.01 to 35 nM
- EC50 (HCV GT1b(Con1) replicon; read-out: LE_1b (EC50, range)): 1.01 to 5 nM

SMILES: C[C@@H]1CC/C=C\[C@@H]2C[C@@]2(C(=O)NS(=O)(=O)C2(C)CC2)NC(=O)[C@@H]2C[C@@H](OC(=O)Nc3ccccc3C(F)(F)F)CN2C(=O)[C@@H](NC(=O)OC(C)(C)C)[C@H](C)C1 [Compound 1302]
- EC50 (HCV GT1a(H77) replicon; read-out: LE_1a (EC50, range)): 5.01 to 35 nM
- EC50 (HCV GT1b(Con1) replicon; read-out: LE_1b (EC50, range)): 1.01 to 5 nM
